Measurements reported in patent US7858635B2 (priority 2005, dated 2010).

Legend:
M1 muscarinic receptor = biological target: T1, M1 muscarinic receptor (Homo sapiens, UniProt P11229); test: Functional mobilization of intracellular calcium (FLIPR, Fluo-3), M1-CHO cells; assay type: cell-based; details: compound nos. 1-454; for Emax: 100% efficacy is the maximum response obtained with the Carbachol control, read-out: M1 Efficacy
T1 construct: expressed in transfected cells; host or cells: CHO cells (M1-CHO, under zeocin and G418 selection)
T1 sequence (P11229 1-460): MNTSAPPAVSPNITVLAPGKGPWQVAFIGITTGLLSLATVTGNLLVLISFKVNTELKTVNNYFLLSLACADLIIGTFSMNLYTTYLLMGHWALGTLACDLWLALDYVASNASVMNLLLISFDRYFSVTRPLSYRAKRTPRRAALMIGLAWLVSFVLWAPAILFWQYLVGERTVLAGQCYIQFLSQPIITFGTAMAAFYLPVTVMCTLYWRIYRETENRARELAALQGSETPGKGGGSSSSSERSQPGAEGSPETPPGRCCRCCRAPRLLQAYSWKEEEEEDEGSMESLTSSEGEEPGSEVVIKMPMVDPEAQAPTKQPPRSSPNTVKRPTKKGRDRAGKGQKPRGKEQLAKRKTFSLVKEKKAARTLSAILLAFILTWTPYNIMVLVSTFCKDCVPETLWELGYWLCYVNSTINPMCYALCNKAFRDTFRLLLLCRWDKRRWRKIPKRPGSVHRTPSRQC
In short: (§1)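 Fluo-3 read-out, ex 488/em 540 nm, 60 sec on FLIPR 3. For agonist mode, compound added directly; for inhibition, 15 min compound pre-incubation before carbachol at EC80 (added as a 3× solution), or co-application. Buffer pH 7.4 with 1 mM probenecid; DMSO 0.5%.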

M4 muscarinic receptor = biological target: T2, M4 muscarinic receptor (Homo sapiens, UniProt P08173); test: Functional mobilization of intracellular calcium (FLIPR, Fluo-3), M4-CHO cells; assay type: cell-based; details: compound nos. 1-454; for Emax: 100% efficacy is the maximum response obtained with the Carbachol control, read-out: M4 Efficacy
T2 construct: expressed in transfected cells; host or cells: CHO cells (M4-CHO, under puromycin, zeocin and blasticidin selection)
T2 sequence (P08173 1-479): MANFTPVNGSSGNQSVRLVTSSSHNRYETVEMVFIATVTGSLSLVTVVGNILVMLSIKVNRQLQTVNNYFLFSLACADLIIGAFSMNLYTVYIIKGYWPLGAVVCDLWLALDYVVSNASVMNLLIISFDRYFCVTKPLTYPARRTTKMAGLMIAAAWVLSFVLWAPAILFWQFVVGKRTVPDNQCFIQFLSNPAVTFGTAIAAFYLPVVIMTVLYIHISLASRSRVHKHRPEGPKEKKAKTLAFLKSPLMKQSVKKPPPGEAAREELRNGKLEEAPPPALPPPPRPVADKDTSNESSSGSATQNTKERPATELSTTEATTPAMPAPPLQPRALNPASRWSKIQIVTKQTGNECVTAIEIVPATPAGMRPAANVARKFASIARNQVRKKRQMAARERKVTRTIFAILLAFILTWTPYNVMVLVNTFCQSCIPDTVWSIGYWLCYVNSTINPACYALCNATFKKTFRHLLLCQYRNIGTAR
In short: as §1

[1] = M1-CHO cells, calcium mobilization
[2] = M4-CHO cells, calcium mobilization

SMILES | Emax (M1 muscarinic receptor) [%] | M1 Activity (M1 muscarinic receptor; [1]) | Emax (M4 muscarinic receptor) [%] | M4 Activity (M4 muscarinic receptor; [2]) | M1 Activity (M1 muscarinic receptor) | M4 Activity (M4 muscarinic receptor)
CC(=O)N[C@@H]1CC2(CCN([C@H]3C[C@@H]4CC[C@H]3C4)CC2)c2ccccc21 [compound 171] | > 85 | ++ (activity was measured to be between 0.7 μM and 3.0 μM) | 55 to 70 | + (activity was measured to be greater than or equal to 4.0 μM) |  | 
O=C(OC1CCC1)N1C2CCC1CC(N1CCC3(CC1)C(=O)Nc1ccccc13)C2 (stereo not shown) [compound 217] | < 65 | ++ (activity was measured to be between 0.7 μM and 3.0 μM) | < 55 | + (activity was measured to be greater than or equal to 4.0 μM) |  | 
CCCOC(=O)N1CC2(CCN(C3CCN(C(=O)OCC)CC3)CC2)c2cc(F)ccc21 [compound 114] | 65 to 85 | ++ (activity was measured to be between 0.7 μM and 3.0 μM) | < 55 | + (activity was measured to be greater than or equal to 4.0 μM) |  | 
CC(C)OC(=O)N1C2CCC1CC(N1CCC3(CC1)CN(S(C)(=O)=O)c1ccc(F)cc13)C2 (stereo not shown) [compound 170] | 65 to 85 | ++ (activity was measured to be between 0.7 μM and 3.0 μM) | > 70 | + (activity was measured to be greater than or equal to 4.0 μM) |  | 
CCOC(=O)N1CCC(N2CCC3(CC2)CN(C(=O)N2CCOCC2)c2ccc(F)cc23)CC1 [compound 290] | < 65 | +++ (activity was measured to be less than or equal to 0.7 μM) | < 55 | + (activity was measured to be greater than or equal to 4.0 μM) |  | 
CCOC(=O)N1CCC(N2CCC3(CC2)CN(CC(=O)CC)c2ccc(F)cc23)CC1 [compound 303] | > 85 | ++ (activity was measured to be between 0.7 μM and 3.0 μM) | < 55 | + (activity was measured to be greater than or equal to 4.0 μM) |  | 
CN(C)C(=O)N1CC2(CCN(C3CCN(c4nccs4)CC3)CC2)c2cc(F)ccc21 [compound 447] | 65 to 85 |  | 55 to 70 |  | +++ (activity was measured to be less than or equal to 0.7 μM) | +++ (activity was measured to be less than or equal to 0.1 μM)
CCOC(=O)N1CCC(N2CCC3(CC2)CN(C(C)=O)c2ccc(Cl)cc23)CC1 [compound 141] | > 85 | +++ (activity was measured to be less than or equal to 0.7 μM) | > 70 | ++ (activity was measured to be between 0.1 μM and 4.0 μM) |  | 
CC(=O)N1CC2(CCN(C3CCN(C(=O)OCCF)CC3)CC2)c2cc(F)ccc21 [compound 172] | > 85 | + (activity was measured to be greater than or equal to 3.0 μM) | 55 to 70 | + (activity was measured to be greater than or equal to 4.0 μM) |  | 
O=C(OCC1CCCO1)N1C2CCC1CC(N1CCC3(CC1)COc1ccc(F)cc13)C2 (stereo not shown) [compound 363] | < 65 | ++ (activity was measured to be between 0.7 μM and 3.0 μM) | < 55 | + (activity was measured to be greater than or equal to 4.0 μM) |  | 
CCOC(=O)N1CCC(N2CCC3(CC2)CN(C(=O)C(C)(C)C)c2ccc(F)cc23)CC1 [compound 282] | < 65 | +++ (activity was measured to be less than or equal to 0.7 μM) | 55 to 70 | ++ (activity was measured to be between 0.1 μM and 4.0 μM) |  | 
C/C=C\c1ccc2c(c1)C1(CCN(C3CCN(C(=O)OCC)CC3)CC1)CN2C(C)=O [compound 407] | < 65 |  | < 55 |  | ++ (activity was measured to be between 0.7 μM and 3.0 μM) | + (activity was measured to be greater than or equal to 4.0 μM)
CCCOC(=O)N1CCC(CN2CCC3(CC2)CN(C(C)=O)c2ccc(F)cc23)CC1 [compound 98] | 65 to 85 | +++ (activity was measured to be less than or equal to 0.7 μM) | < 55 | ++ (activity was measured to be between 0.1 μM and 4.0 μM) |  | 
